Patent US20100298325A1, “PYRIDINE DERIVATIVES FOR THE TREATMENT OF AMYLOID-RELATED DISEASES” (SENEXIS LIMITED, priority 2007, published 2010)
Like-named read-outs stand apart in the source and are kept apart here.

What was measured:
Aβ(1-42) = molecular target: T1, Aβ(1-42) (Homo sapiens, UniProt P05067); assay: Thioflavin-T fluorimetric assay of Aβ(1-42) aggregation; assay type: biochemical; conditions: 10 μM Aβ(1-42); thioflavin-T fluorescence; read-out: IC50 inhibiting 10 μM Aβ(1-42) aggregation
T1 construct: dissolving Aβ(1-42) HCl salt in hexafluoroisopropanol (HFIP)
Procedure: Aβ(1-42) was prepared for amyloid aggregation and toxicity assays by dissolving Aβ(1-42) HCl salt in hexafluoroisopropanol (HFIP), with brief sonication and vortexing. This solution of the Aβ(1-42) peptide in HFIP was stored at 4° C. @ 2 mM. When required, an aliquot of this stock solution was freeze-dried and dissolved in DMSO to 200 times the required final assay concentration (e.g. 2 mM for a final assay concentration of 10 μM). A 20 mM stock solution of each test compound was prepared in DMSO, and aliquots of these solutions were used to prepare further stock solutions of each test compound in DMSO, ranging in concentration from 3 μM up to 10 mM. These stock solutions were prepared for use as and when required and stored at −20° C. (maximum of 3 freeze-thaw cycles). The 20 mM parent stock solutions were stored frozen at −20° C. The daughter plate is sealed with silver seal and incubated at 37° C. for 24 and 48 hours for the Thioflavin T assay (LeVine and Scholten 1999). The activity of compounds in inhibiting 10 μM Aβ(1-42) aggregation was assessed by using a thioflavin-T fluorimetric assay. At each timepoint, a 50 or 100 μl aliquot is taken from each well of the daughter plate and dispensed into a black 96 well plate. Equal volume (50 or 100 μl) Thioflavin T [40 μM] (in Glycine buffer [50 mM]-NaOH pH 8.5) is added to each well. The plate was shaken and fluorescence was recorded using the top reader setting (10×1 msec), using excitation and emission filters of 440 (±15) and 485 (±10) nm, respectively. Fluorescence readings from equivalent experiments were averaged and % amyloid formation was determined as follows: Activity of Compounds in Inhibiting 10 μM Aβ(1-42) Aggregation Using Thioflavin-T Fluorimetric Assay

SH SY5Y cells = assay: Cell viability assay for amyloid toxicity using MTT reduction; assay type: cell-based; conditions: 10 μM Aβ(1-42), 24 h incubation, MTT reduction as measure of cell viability, read-out: IC50 protecting SH SY5Y cells from a toxic insult of 10 μM Aβ(1-42)
Procedure: Aβ(1-42) was prepared for amyloid aggregation and toxicity assays by dissolving Aβ(1-42) HCl salt in hexafluoroisopropanol (HFIP), with brief sonication and vortexing. This solution of the Aβ(1-42) peptide in HFIP was stored at 4° C. @ 2 mM. When required, an aliquot of this stock solution was freeze-dried and dissolved in DMSO to 200 times the required final assay concentration (e.g. 2 mM for a final assay concentration of 10 μM).
A 20 mM stock solution of each test compound was prepared in DMSO, and aliquots of these solutions were used to prepare further stock solutions of each test compound in DMSO, ranging in concentration from 3 μM up to 10 mM. These stock solutions were prepared for use as and when required and stored at −20° C. (maximum of 3 freeze-thaw cycles). The 20 mM parent stock solutions were stored frozen at −20° C.
The activity of compounds in protecting SH SY5Y cells from a toxic insult of 10 μM Aβ(1-42) was assessed by using inhibition of MIT reduction as a measure of cell viability. An aliquot (3 μl) of test compound [various concentrations] in DMSO is added to 294 μl of Opti-Mem (containing 2% FBS, 1% Pen/Strep, 1% L-Gln) {daughter plate}. The well is mixed thoroughly. Then an aliquot (3 μl) of Aβ(1-42) [2 mM] is added to the daughter plate wells and again mixed thoroughly. 50 μl is then aspirated and dispensed into wells containing 50 μl media+SH SY5Ycells (cells are also plated in Opti-Mem, at ˜30,000 cells/well/50 μl). Final concentrations of compound on cells range from [50 μM] to [˜15 nM] with a final concentration of Aβ(1-42) of [10 μM].
Cell plates are incubated for 24 h and then the MTT assay (Shearman, 1999). is performed. Briefly, 15 μl of MTT (3-(4,5-dimethylthiazol-2-yl)-2,5-diphenyl-tetrazolium bromide) dye (from Promega) added to each well and the plates incubated in 5% CO2 at 37° C. for 4 hours. 100 μl Stop/solubilsation solution (from Promega) was added to each well and the plates were left overnight in humidified box at room temperature. The plate was shaken and the absorbance was recorded at both 570 nm and 650 nm. ΔA values were calculated by subtracting absorbance at 650 nm from absorbance at 570 nm, to reduce non-specific background absorbance. ΔA values from equivalent experiments were averaged and % cell viability was determined as follows:
Live cell controls: 1% DMSO in Opti-Mem
Dead cell controls: 0.1% Triton X-100 added to cells
Activity of Compounds in Protecting SH SY5Y Cells from a Toxic Insult of 10 μM Aβ(1-42) Using Inhibition of MTT Reduction as a Measure of Cell Viability

T1 sequence (P05067 672-713 limits assumed): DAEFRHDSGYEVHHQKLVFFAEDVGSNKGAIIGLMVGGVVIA

IC50 (Aβ(1-42))	Compound	IC50 (SH SY5Y cells; Homo sapiens, SH-SY5Y)	IC50 (SH SY5Y cells)
5 µM	Oc1cccc(Nc2ccc(Oc3ccc(F)cc3)cn2)c1 [Example 1, 3-[5-(4-Fluorophenoxy)pyridin-2-ylamino]-phenol]	16 µM	–
9 µM	COc1cc(Nc2ccc(Oc3cccc(N(C)C)c3)cn2)ccc1F [Example 17, [5-(3-Dimethylaminophenoxy)-pyridin-2-yl]-(4-fluoro-3-methoxy-phenyl)amine]	16 µM	–
–	COc1cc(N(C)c2ccc(Oc3cccc(N(C)C)c3)cn2)ccc1F [Example 26, [5-(3-Dimethylaminophenoxy)-pyridin-2-yl]-(4-fluoro-3-methoxy-phenyl)methylamine]	22 µM	–
11 µM	COc1cc(Nc2ccc(Oc3cccc(N4CCOCC4)c3)cn2)ccc1F [Example 27]	8 µM	–
15 µM	Oc1cccc(Nc2ccc(Oc3cccc(N4CCOCC4)c3)cn2)c1 [Example 31]	–	–
–	Oc1cccc(Nc2ccc(Nc3cccc(O)c3)nn2)c1 [RS-0406, reference compound]	–	40 µM
